For series [1] the following is noted: Halkier and Møller, 1989; cited from earlier work.
Series [2] deals with microbial organisms.

In the case of `N#CC(O)c1ccc(O)cc1` (centres unmarked) [p-hydroxymandelonitrile], in series [1], the “stability in aqueous solutions” value is “highly unstable”. With `COc1cc(C=O)ccc1O[C@@H]1O[C@H](CO)[C@@H](O)[C@H](O)[C@H]1O` [vanillin glucoside, vanillin-β-D-glucoside], the “toxicity to microbial organisms compared with the aglycon vanillin” value in series [2] was “much less toxic”.

The values are drawn from patent publication US7846697B2, “Method of producing a low molecular weight organic compound in a cell” (BLMaps, priority 2003, dated 2010).
